pKd: −log10 of the molar value. “Also recorded” adds a separate entry of the source. Where no end group is shown, it is not given here.
Assays:
[1] = molecular target: GST-Cldn4.Ecl2 (R4) (Mus musculus, UniProt O35054); assay type: binding; settings: for pKd: read-out: calculated equilibrium affinity (KD)
[2] = molecular target: Claudin-4 Ecl2 domain (synthetic biotinylated peptide) (Mus musculus, UniProt O35054); assay type: binding
[3] = molecular target: GST protein (Schistosoma japonicum, UniProt P08515); assay type: binding
[4] = molecular target: T1, Cldn-4 Mutant R4 (Mus musculus, UniProt O35054); assay: Kd (1/s)
T1 construct: made in house; host or cells: E. coli BL21 (pLysS)
Description: (§1) Table printed on a drawing sheet, FIGURE 3
(§2) Title: Binding Kinetics of Various Peptides to Cldn-4 Mutant R4
Head of the field: Kd (1/s)
(§3) The processed specific binding sensorgrams are presented for each ligand. The 50 nM analyte concentration was repeated twice to confirm reproducibility. The binding kinetics was analyzed by “BIAevalution 3.1” software with 1:1 (langmuir) binding mode, and the binding constants were summarized in the table.
(§4) First copying reader's note: Panel B of FIGURE 3; panel A is a sensorgram plot and is left out.
(§5) Where the first naming reader finds the target: table_title: Binding Kinetics of Various Peptides to Cldn-4 Mutant R4

[5] = molecular target: T1, Cldn-4 Mutant R4
[6] = molecular target: T1, Cldn-4 Mutant R4; assay: KD (nM)
Description: as §1, §2
Head of the field: KD (nM)
as §3, §4, §5

T1 sequence (O35054 117-181, change not shown): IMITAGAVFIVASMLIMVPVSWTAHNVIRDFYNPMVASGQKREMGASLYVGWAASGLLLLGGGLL
Chain of GST protein (P08515 whole entry, looked up): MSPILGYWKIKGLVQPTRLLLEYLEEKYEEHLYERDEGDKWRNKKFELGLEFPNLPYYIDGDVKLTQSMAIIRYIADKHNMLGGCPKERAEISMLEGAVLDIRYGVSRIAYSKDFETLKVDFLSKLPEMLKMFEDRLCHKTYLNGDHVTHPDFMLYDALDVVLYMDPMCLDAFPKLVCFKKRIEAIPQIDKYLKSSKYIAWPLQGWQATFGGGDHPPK

## ASNSSYSGNYSIL [Cpe30 MT3]
[1]
  specific binding to Cldn4 Ecl2 (GST-Cldn4.R4): did not bind

## VTHKTCPPACWP [CC4P-2]
[1]
  specific binding to Cldn4 Ecl2 (GST-Cldn4.R4): no specific binding

## SSYSGNYPYSIL [Cpe30 MT1]
[1]
  specific binding to Cldn4 Ecl2 (GST-Cldn4.R4): no specific binding; also recorded: did not bind

## APWTEHSYYLSL [CC4P-13] [listing 1 of 2 here]
[1]
  KD (stated in words): nanomolar level
  specific binding to Cldn4 Ecl2 (GST-Cldn4.R4): clear specific binding; also recorded: orientation of biotinylation did not affect the binding; also recorded: significant affinity

## SPWSEPAYTLAP [CC4P-5] [listing 1 of 2 here]
[1]
  KD (stated in words): nanomolar level
  specific binding to Cldn4 Ecl2 (GST-Cldn4.R4): clear specific binding; also recorded: significant affinity

## SLDAGQYVLVMKANSSYSGNYPYSILFQKF [Cpe30] [listing 1 of 2 here]
[2]
  binding to lariat Ecl2 (cyclic, disulfide bond): failed to bind
  binding to linear B-Ecl2 peptide: No specific binding
  binding to tethered Ecl2 (B-Ecl2-B, biotin at both termini): failed to bind
[1]
  on-rate: similar
  specific binding to Cldn4 Ecl2 (GST-Cldn4.R4): optimal binding activity; also recorded: strong specific binding
  pKd: 8.59
[3]
  binding to GST protein only: did not bind

## APWTEHSYYLSL [CC4P-13] [listing 2 of 2 here]
[4]
  Kd: 0.000742 s⁻¹

## SLDAGQYVLVMKANSSYSGNYPYSILFQKF [Cpe30] [listing 2 of 2 here]
[5]
  Ka: 130000 M⁻¹ s⁻¹

## APWTEHSYYLSL [CC4P-13R]
[1]
  off-rate: slowest off-rate

## NSSYSGNYPYSILFQKF [Cpe17, NSSYSGNYPYSILFQKF]
[6]
  pKd: 8.67
[1]
  off-rate: slightly slower off-rate
  on-rate: similar
  specific binding to Cldn4 Ecl2 (GST-Cldn4.R4): strong specific binding
  pKd: 8.80

## SPWSEPAYTLAP [CC4P-5] [listing 2 of 2 here]
[5]
  Ka: 315000 M⁻¹ s⁻¹
[4]
  Kd: 0.00141 s⁻¹
